# Data reported in patent US6849594B1, “Purification and use of human recombinant cartilage oligomeric matrix protein” (priority 1999, dated 2005).
# Read-outs that look alike come from different tables or passages of the source.
# Experiments:
# [1] = molecular target: T1, hCOMP (Homo sapiens, UniProt P49747); assay: Affinity co-electrophoresis (ACE) binding of hCOMP to glycosaminoglycans
# T1 construct: transfected with full length human COMP cDNA, they were able to process and secrete hCOMP; made in house
# Text: Affinity co-electrophoresis (ACE) was used to quantify the binding of hCOMP to heparin and other GAGs, including chondroitin sulfates from cartilage. Values are given in nM, and in cases where a standard deviation is reported, represent the mean of two determinations.
# Affinity co-electrophoresis (ACE) (San Antonio et al., 1993) was used to quantify the binding of hCOMP to heparin and other commercially available GAGs derived from tissue sources, including chondroitin sulfates from cartilage, and values of Kd were measured. […] This is in agreement with our observation that hCOMP binds to heparin-Sepharose. […] To better ascertain potential roles of GAGs and proteoglycans in COMP function, heparan sulfate, keratan sulfate, and three chondroitin sulfates (chondroitin-6-sulfate, C6S; chondroitin-4-sulfate; C4S; and dermatan sulfate, DS) were tested for binding to hCOMP in the presence of 2 mM calcium using ACE (Table 1).
# To further determine whether the conformation of the calcium-binding type 3 repeats was critical to GAG binding, hCOMP was tested for binding to heparin and C6S in the presence of 5 mM EDTA. […] While heparin binding was reduced only 3- to 5-fold by EDTA treatment, C6S binding appeared to be abolished by this treatment.
# [2] = Direct calcium binding by equilibrium dialysis using 45CaCl2; settings: 0.3 mM free calcium concentration; mean±SD
# Method: Direct calcium binding to COMP was measured by equilibrium dialysis using ^45CaCl2. Briefly, TSP1 and COMP were dialyzed in Slide-A-Lyzer dialysis units (Pierce, Rockford, Ill.) against dialysis buffer containing 0.3 mM CaCl2 and […] of ^45CaCl2. At the end of dialysis, 10 μl of protein sample and dialysis buffer were taken out for scintillation counting and protein determination. The number of calcium ions bound was calculated. At 0.3 mM free calcium concentration, each TSP1 subunit bound 10±2 calcium ions (mean±SD of four data points). This is in agreement with previous reports where 11-12 calcium ions were reported to bind to each TSP1 subunit (Lawler and Simons, 1983; Misenheimer and Mosher, 1995). Under the same conditions, each subunit of COMP bound 11±1 calcium ions. This is the first time it is shown that COMP binds calcium ions, and the result is consistent with the presence of highly homologous type 3 calcium binding repeats in COMP and other TSP family members.
# Direct calcium binding to COMP was measured by equilibrium dialysis using ^45CaCl2. Briefly, TSP1 and COMP were dialyzed in Slide-A-Lyzer dialysis units (Pierce, Rockford, Ill.) against dialysis buffer containing 0.3 mM CaCl2 and 10 mCi/ml of ^45CaCl2. […] The number of calcium ions bound was calculated. […]
# [3] = tested on: Human costochondral cartilage cells; assay: Transwell chondrocyte migration assay; format: cell-based; settings: for chondrocyte migration: coated on underside of transwell membranes, 37° C., four hours
# Method: (§1) Furthermore, as discussed in Example 5, COMP is a motility factor for chondrocyte migration. Human costochondral cartilage cells were used to test if COMP is active in promoting chondrocyte migration. COMP, as well as TSP1 and Vitrogen (Cohesion; Palo Alto, Calif.), at different concentrations, was coated on the underside of membranes of transwell migration assay wells. Chondrocyte cells, prepared as in the attachment assays, were loaded into the wells. Migration was allowed to go on at 37° C. for four hours. Nonmigratory cells remaining inside the wells were removed with cotton swabs. Cells which migrated to the underside of the membranes were quantified using a CyQuant kit.
# as §1, with “Human” for “Furthermore, as discussed in Example 5, COMP is a motility factor for chondrocyte migration. Human”, “concentrations, were” for “concentrations, was”, “assay wells (Costar, Cambridge, Mass.).” for “assay wells.”, “Cells that” for “Cells which”, “CyQuant kit (Molecular Probes).” for “CyQuant kit.”
# [4] = tested on: TC1a cells after 7- to 10-day culture in alginate beads; assay: Attachment of TC1a cells after alginate culture to coated protein; format: cell-based, human
# Text: An alginate culture system was used to re-differentiate the chondrocytes as described (Robbins and Goldring, 1998; Goldring, 1998; Hauselmann et al., 1994; Bonaventure et al., 1994). Briefly, cells in monolayer culture were trypsinized and washed with phosphate buffered saline. Cells were resuspended in 1.2% solution of Keltone, LVCR alginate (Monsanto, St. Louis, Mo.) in 0.15 M NaCl at a final concentration of 4×10^6 cells/ml. The cell suspension was then passed through a 22 Gauge needle into 102 mM CaCl2. Ten minutes after instant gelation, beads were washed with 0.15 M NaCl, and cultured in 1:1 DME/F-12 containing 10% FBS and 25 μg/ml ascorbate. To prepare cells in the alginate culture system for attachment assays, 7- to 10-day alginate bead cultures were solubilized with 55 mM citrate/0.15 M NaCl, pH 6.0 solution as described (Robbins and Goldring, 1998). Released cells were washed once with PBS and once with HBS/C before they were resuspended in HBS/C containing 1% BSA at a final concentration of 2-2.5×10^5 cells/ml.
# Immulon II 96-well plates (DYNEX, Chantilly, Va.) were coated with COMP at various concentrations in HBS/C or HBS containing 5 mM EDTA (HBS/E) at 4° C. overnight. […] The amount of cells attached to each well was quantified using CyQuant kit (Molecular Probes, Eugene, Oreg.). […]
# [5] = tested on: TC1a cells (chondrocyte-derived cell line), monolayer culture; assay: Attachment of TC1a cells grown in monolayer to coated protein; format: cell-based, human
# Method: To prepare cells grown in monolayer for attachment assays, cells grown in 10 cm tissue culture plates were washed twice with HEPES buffered saline (HBS), and treated with 1 ml of 0.1 mg/ml TPCK-treated trypsin (Worthington, Lakewood, N.J.) in HBS at 37° C. for 5 minutes. Trypsinization was stopped with 2 ml of 0.5 mg/ml soybean trypsin inhibitor (Sigma) in HBS with 1 mM CaCl2 (HBS/C). Cells were flushed off the plate as a single cell suspension, sedimented and washed twice with trypsin inhibitor solution. Subsequently, cells were resuspended in HBS/C containing 1% heat-inactivated bovine serum albumin (HI-BSA) at a final concentration of 2-2.5×10^5 cells/ml and used for attachment assays.
# Immulon II 96-well plates (DYNEX, Chantilly, Va.) were coated with COMP at various concentrations in HBS/C or HBS containing 5 mM EDTA (HBS/E) at 4° C. overnight. The plates were then blocked with 1% HI-BSA in HBS/C or HBS/E, respectively, for 30 minutes at 37° C. After blocking, some wells coated with proteins in HBS/E were reduced with 20 mM dithiothreitol (DTT) in HBS/E for 30 minutes at 22° C. Wells were washed 4 times with HBS/C before addition of 100 μl of cells to each well and incubated for 2 hours at 37° C. At the end of the incubation, after examination under phase contrast microscopy, the plate was washed 3 times with HBS/C. The amount of cells attached to each well was quantified using CyQuant kit (Molecular Probes, Eugene, Oreg.).
# [6] = previous reports (Lawler and Simons, 1983; Misenheimer and Mosher, 1995); cited from earlier work
# [7] = 2 mM Ca2+, ACE, > means no binding observed at any protein concentration, read-out: COMP, Kd in 2 mM Ca^2+
# [8] = 5 mM EDTA, ACE, > means no binding observed at any protein concentration, read-out: COMP, Kd in 5 mM EDTA
# T1 sequence (P49747 21-757): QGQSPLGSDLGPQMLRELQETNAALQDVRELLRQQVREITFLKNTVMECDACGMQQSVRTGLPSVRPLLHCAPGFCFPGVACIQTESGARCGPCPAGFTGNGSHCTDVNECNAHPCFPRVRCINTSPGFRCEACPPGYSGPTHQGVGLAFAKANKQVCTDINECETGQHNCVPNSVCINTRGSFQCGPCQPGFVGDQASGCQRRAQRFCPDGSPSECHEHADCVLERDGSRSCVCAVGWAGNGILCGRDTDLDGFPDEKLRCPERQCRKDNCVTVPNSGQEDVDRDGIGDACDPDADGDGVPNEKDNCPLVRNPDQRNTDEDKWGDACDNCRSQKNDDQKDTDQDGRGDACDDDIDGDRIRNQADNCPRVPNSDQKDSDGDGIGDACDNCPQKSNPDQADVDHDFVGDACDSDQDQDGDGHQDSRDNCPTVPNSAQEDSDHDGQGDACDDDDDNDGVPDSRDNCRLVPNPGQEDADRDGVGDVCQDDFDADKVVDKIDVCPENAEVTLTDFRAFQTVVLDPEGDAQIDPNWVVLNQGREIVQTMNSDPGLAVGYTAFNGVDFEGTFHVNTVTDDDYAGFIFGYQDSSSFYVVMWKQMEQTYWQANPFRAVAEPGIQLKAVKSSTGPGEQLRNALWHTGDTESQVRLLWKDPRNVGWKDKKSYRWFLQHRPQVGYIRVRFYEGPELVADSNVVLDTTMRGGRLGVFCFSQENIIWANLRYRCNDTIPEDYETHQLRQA
substance,measurement,setting,value
Heparin,Kd,[1]; [7],89 nM
same,Kd,[1]; [8],450 nM
cartilage oligomeric matrix protein [hCOMP],calcium ions bound per subunit,[2],11±1 calcium ions
same,chemoattractant potency compared with TSP1,[3],more potent chemoattractant than TSP1
same,chondrocyte migration,[3],good chemoattractant
same,chemoattractant potency compared with TSP1,[3]; same concentration of 10 μg/ml,more potent chemoattractant than TSP1
same,cell attachment,"[4]; calcium replete form, re-differentiated TC1a cells",able to support attachment
same,decrease of level of attachment by chelation of calcium before coating,[4]; chelation of calcium before coating,approximately 50%
same,effect on attachment of treating with EDTA before coating,[5]; EDTA before coating,no obvious effect
same,protein coating concentration at which cells also spread,[5]; calcium replete conformation,≥ 5 µg/mL
same,coating concentration at which cells attached and spread,[5]; dithiothreitol-treated,1 µg/mL
same,cell attachment,"[5]; protein in calcium replete conformation, coated on wells",supported cell attachment in a dose-dependent manner
same,effect of reduction after coating on adhesive activity,"[5]; reduced with DTT after coating, especially at low coating concentration",increased its adhesive activity
chondroitin-4-sulfate [C4S],Kd,[1]; [7],583 nM
chondroitin-6-sulfate [C6S],Kd,[1]; [7],403 nM
same,binding to hCOMP after EDTA treatment (in words),[1]; 5 mM EDTA,abolished
same,Kd,[1]; [8],> 11000 nM
dermatan sulfate [DS],Kd,[1]; [7],328 nM
heparan sulfate [HS],Kd,"[1]; in the presence of calcium, ACE, read-out: binding to hCOMP (Kd)",1200 nM
human thrombospondin 1 [TSP1],calcium ions bound per subunit,[2],10±2 calcium ions
same,chondrocyte migration,[3],promotes chondrocyte migration
same,chondrocyte migration,[3]; listed as TSP 1,promoted chondrocyte migration
same,"calcium ions bound per subunit, previous reports",[6],11-12 calcium ions
keratan sulfate [KS],Kd,[1]; [7],> 11000 nM
same,binding to hCOMP (in words),"[1]; in the presence of calcium, ACE",did not bind
